In patent US12599606B2, “Therapies with 3rd generation EGFR tyrosine kinase inhibitors” (Janssen Biotech, Inc., priority 2019, dated 2026):

What was measured:
[1] = system: EGFR mutation positive (EGFRm+) advanced NSCLC; assay: Clinical Trial No. NCT03046992, phase I/II lazertinib monotherapy; type: in vivo, human; conditions: for ORR, (%): T790M+ patients
From the text: Clinical Trial No. NCT03046992 was primarily designed to evaluate the safety, tolerability, and efficacy of YH25448 in patients with EGFR mutation positive (EGFRm+) advanced NSCLC with or without asymptomatic brain metastasis who progressed following prior therapy with an EGFR TKIs agent.
Patients with advanced and metastatic NSCLC who had progressed after treatment with EGFR-TKIs with/without asymptomatic brain metastases (BM) were enrolled in an open-label, multicenter, phase I/II study with dose-escalation and expansion cohorts. Lazertinib was administered once daily at doses between 20 to 320 mg in a 21-day cycle. Patients were assessed for safety, tolerability, pharmacokinetics and efficacy. T790M status was confirmed in the dose-expansion cohorts.

[2] = system: EGFR Dell9/T790M mutant lung adenocarcinoma; conditions: one patient, 40 mg daily, cited from earlier work
[3] = system: H1975 human lung xenografts; assay: H1975 human lung carcinoma xenograft model, antitumor activity
Experimental: The animals were fed ad libitum water (reverse osmosis, 1 ppm Cl) and NIH 31 Modified and Irradiated Lab Diet® consisting of 18.0% crude protein, 5.0% crude fat, and 5.0% crude fiber. The mice were housed on irradiated Enrich-o'cobs™ Laboratory Animal Bedding in static microisolators on a 12-hour light cycle at 20-22° C. (68-72° F.) and at 40-60% humidity. All studies complied with the recommendations of the Guide for Care and Use of Laboratory Animals with respect to restraint, husbandry, surgical procedures, feed and fluid regulation, and veterinary care. […]
On the day of implant, the NCI-H1975 cells were harvested during log phase growth and resuspended in phosphate buffered saline (PBS) at a concentration of 5×10^7 cells/mL. Xenografts were initiated by subcutaneously implanting 5×10^6 NCI-H1975 cells per animal (0.1 mL suspension) into the right flank of each test animal and tumors were monitored as their volumes approached the target range of 150-200 mm^3. Fifteen days later, animals were sorted into bins by calculated tumor volumes based on vernier caliper measurements of tumor width and length to the nearest mm. […] Tumor size, in mm3, was calculated using the following formula: Tumor Volume=(w^2×l)/2 where w=width and l=length, in mm, of the tumor. […]

H1975-HGF xenografts = assay: H1975-HGF human lung carcinoma xenograft model, antitumor activity
Experimental: (§1) Female athymic nude mice were used in the studies (n=10/group). Treatment began when SC tumors reached approximately 100 to 300 mm^3 in size. and dosing was initiated according to the treatment plan summarized in Table 2. […] The control group was dosed with vehicle orally daily for 21 days, and the isotype control antibody was dosed twice a week IP for 3 weeks. Mice were monitored for body weight and tumor volume up to Day 95, and were euthanized when individual tumor volume reached 2,000 mm^3 or at study conclusion.
Tumor volume data were graphically represented as the mean tumor volume±SEM. Tumor volume was calculated using the formula: tumor volume (mm^3)=(D×d2)/2; where ‘D’ represents the larger diameter, and ‘d’ the smaller diameter of the tumor as determined by caliper measurements.
The % TGI was defined as the difference between mean tumor burden of the treated and control group, calculated as % ΔTGI=([(TVc−TVc0)−(TVt−TVt0)]/(TVc−TVc0))×100 where ‘TVc’ is the mean tumor burden of a given control group, ‘TVc0’ is the mean initial tumor burden of a given control group, ‘TVt’ is the mean tumor burden of the treated group, and ‘TVt0’ is the mean initial tumor burden of the treated group. […]
Survival data was graphed and analyzed using GraphPad Prism 7.04 for Windowswith day 1 as the treatment start date. […]

[4] = Body weight and clinical signs of nude mice bearing H1975 xenografts; conditions: for body weight loss compared to the control group: H1975-xenograft-bearing nude mice, Day 29, 10 mg/kg; for animals euthanized due to negative clinical signs: H1975 model, n=10/group, unclear whether due to tumor burden or treatment
Experimental: The mice were housed on irradiated Enrich-o'cobs™ Laboratory Animal Bedding in static microisolators on a 12-hour light cycle at 20-22° C. (68-72° F.) and at 40-60% humidity.
as §1
(§2) Relative body weight of individual mice was calculated using the formula: (W/W0)×100, where ‘W’ represents body weight on a particular day, and ‘W0’ represents body weight at initiation of treatment. Body weight was graphically represented as mean % of initial body weight±SEM.
Tumor volume and body weight data were graphically represented using Prism software (GraphPad, version 7). Statistical significance was evaluated for all pairwise comparisons on the last day of the study when at least eight mice remained in each group. Differences between groups were considered significant when p≤0.05. Statistical significance of tumor volume and body weight was calculated using the Linear Mixed-Effects analysis in R software version 3.4.2 (using Janssen's internally developed Shiny application version 3.3), with treatment and time as fixed effects and animal as random effect. Logarithmic transformation (base 10) was performed if individual longitudinal response trajectories were not linear. The information derived from this model was used to make pairwise treatment comparisons to the control group or between all the treatment groups.

[5] = Body weight and clinical signs of nude mice bearing H1975-HGF xenografts; type: in vivo; conditions: H1975-HGF model, n=10/group; unclear whether due to tumor burden or treatment
Experimental: as §1, §2
Tumor volume and body weight data were graphically represented using Prism software (GraphPad, version 7). Statistical significance was evaluated for all pairwise comparisons on the last day of the study when at least eight mice remained in each group. Differences between groups were considered significant when p≤0.05. Statistical significance of tumor volume and body weight was calculated using the Linear Mixed-Effects analysis in R software version 3.4.2 (using Janssen's internally developed Shiny application version 3.3), with treatment and time as fixed effects and animal as random effect. […]

advanced NSCLC = assay: Study 61186372EDI1001, Phase 1 first-in-human dose escalation of JNJ-61186372 as monotherapy and in combination with lazertinib; type: in vivo
From the text: This study is a first-in-human, open-label, multicenter, 2-part, Phase 1 dose escalation study to evaluate the safety and PK, establish a recommended Phase 2 dose (RP2D) and recommended Phase 2 combination dose (RP2CD) regimen, and to assess the preliminary efficacy of JNJ-61186372 as a monotherapy and in combination with lazertinib in subjects who are≥18 years of age with advanced NSCLC.
Part 1 JNJ-61186372 Monotherapy and Combination Dose Escalations: A traditional 3+3 design will be utilized to determine the MTD (or the maximum administered dose [MAD] if no MTD is defined) and the RP2D regimen(s) for JNJ-61186372 monotherapy, and the RP2CD of the JNJ-61186372 and lazertinib combination, in subjects with advanced NSCLC. The total number of subjects enrolled in each dose escalation will depend on the dose level at which the MTD or MAD is reached, and whether dose cohort expansions are indicated. […]
Anti-tumor activity will be evaluated by clinical responses as per the Response Evaluation Criteria in Solid Tumors (RECIST v1.1) (Eisenhauer et al.., Eur J Cancer 2009;45(2):228-247) The investigator will evaluate sites of disease by radiological imaging, physical examination, and other procedures, as necessary, and all results will be recorded in the case report form (CRF). […]

[6] = monotherapy, EGFR-mutated NSCLC
[7] = Day 28, as compared to controls, 10 mg/kg

## C=CC(=O)Nc1cc(Nc2nccc(-n3cc(CN(C)C)c(-c4ccccc4)n3)n2)c(OC)cc1N1CCOCC1 [Lazertinib, N-(5-(4-(4-((dimethylamino)methyl)-3-phenyl-1H-pyrazol-1-yl)pyrimidin-2-ylamino)-4-methoxy-2-morpholinophenyl)acrylamide]
[1]; 20 to 320 mg once daily
  systemic exposure: increased dose-dependently
[1]; 93 T790M+ patients
  ORR: 69%
[1]; 115 patients
  TEAE constipation: 12%
  TEAE decreased appetite: 17%
  TEAE of grade ≥3 hyponatraemia: 2%
  TEAE of grade ≥3 nausea: 2%
  TEAE of grade ≥3 pneumonia: 2%
  TEAE pruritus: 19%
  TEAE rash: 14%
[1]; EGFR T790M+ NSCLC patients, multiple dose levels
  tolerability: well tolerated
[1]; 20 mg QD, 2 evaluable
  ORR, (%): 100%
[1]; 40 mg QD, 25 evaluable
  ORR, (%): 68%
[1]; 80 mg QD, 18 evaluable
  ORR, (%): 61%
[1]; 120 mg QD, 22 evaluable
  ORR, (%): 77%
[1]; 160 mg QD, 18 evaluable
  ORR, (%): 61%
[1]; 240 mg QD, 8 evaluable
  ORR, (%): 75%
[1]; dose-escalation cohort, 38 patients, 20 to 320 mg
  dose-limiting toxicities: No dose-limiting toxicities were observed
[1]; evaluable patients (n=110) at data cut-off, 20 to 320 mg once daily
  objective response rate (ORR): 65%
[1]; monotherapy FIH dose escalation, through 320 mg
  DLTs: no DLTs were observed
[1]; [6]
  dose from which clinical activity was demonstrated in the targeted population: 240 mg
[1]; patients with BM (n=12)
  intracranial ORR: 50%
[2]; tumor assessment after 6 weeks
  extracranial tumor reduction: 12.7%
  intracranial tumor reduction: 49.3%
  overall tumor reduction: 25.9%
[2]
  adverse events: without significant adverse events
[3]; n=10/group, mice with CR
  CR (complete tumor regression): 1 of 10
H1975-HGF xenografts; n=10/group, mice with CR
  CR (complete tumor regression): 2 of 10
[4]
  body weight loss compared to the control group: some transient body weight loss
  animals euthanized due to negative clinical signs: One

## C=CC(=O)Nc1cc(Nc2nccc(-c3cn(C)c4ccccc34)n2)c(OC)cc1N(C)CCN(C)C [Osimertinib, osimertinib, reference compound]
[5]
  mice found dead or euthanized due to negative clinical signs: One
[4]
  body weight loss compared to the control group: some transient body weight loss

## JNJ-372
[5]
  mice found dead or euthanized due to negative clinical signs: One
Advanced NSCLC; monotherapy FIH dose escalation, through 1400 mg
  DLTs: no DLTs were observed
Advanced NSCLC; [6]
  dose from which clinical activity was demonstrated in the targeted population: 700 mg
[3]; [7]
  TGI: 86%
H1975-HGF xenografts; [7]
  TGI: 70%
[4]
  animals euthanized due to negative clinical signs: One
